Results reported in patent publication US8114880B2, “Piperidine or piperazine substituted tetrahydro-naphthalene-1-carboxylic acid MTP inhibiting compounds” (Janssen Pharmaceutica N.V., priority 2006, dated 2012).

Experiments:
HepG2 cells = assay: Quantification of the secretion of ApoB; format: cell-based; conditions: Homo sapiens, HepG2, 24 h, 24 hours of incubation, pIC50 = -log IC50
In short: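 At 70% confluency, HepG2 cells received compound (0.4% DMSO final) for 24 h. Secreted apoB in cleared medium was immunoprecipitated with sheep anti-apoB then rabbit anti-sheep antibody (24 h each at 8° C.), and pellet radioactivity was counted by scintillation. IC50 values were expressed as pIC50.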

MTP = MTP (Homo sapiens, UniProt P55157); assay: MTP assay (triglyceride transfer from donor to acceptor vesicles); format: biochemical; conditions: MTP activity, percent triglyceride transfer from donor to acceptor vesicles, 37° C.
In short: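 Radiolabelled triglyceride transfer from donor vesicles (phosphatidylcholine, 7.5 mol % cardiolipin, 0.25 mol % glycerol tri[1-^14C]-oleate) to phosphatidylcholine acceptor vesicles with BSA, pH 7.5 Tris buffer; compounds in DMSO (0.13% final), 5 min preincubation at 37° C before MTP addition. Donor vesicles removed on DEAE-52; acceptor-supernatant ^14C counts give percent transfer.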

Sequence of MTP (P55157 19-894, species assumed): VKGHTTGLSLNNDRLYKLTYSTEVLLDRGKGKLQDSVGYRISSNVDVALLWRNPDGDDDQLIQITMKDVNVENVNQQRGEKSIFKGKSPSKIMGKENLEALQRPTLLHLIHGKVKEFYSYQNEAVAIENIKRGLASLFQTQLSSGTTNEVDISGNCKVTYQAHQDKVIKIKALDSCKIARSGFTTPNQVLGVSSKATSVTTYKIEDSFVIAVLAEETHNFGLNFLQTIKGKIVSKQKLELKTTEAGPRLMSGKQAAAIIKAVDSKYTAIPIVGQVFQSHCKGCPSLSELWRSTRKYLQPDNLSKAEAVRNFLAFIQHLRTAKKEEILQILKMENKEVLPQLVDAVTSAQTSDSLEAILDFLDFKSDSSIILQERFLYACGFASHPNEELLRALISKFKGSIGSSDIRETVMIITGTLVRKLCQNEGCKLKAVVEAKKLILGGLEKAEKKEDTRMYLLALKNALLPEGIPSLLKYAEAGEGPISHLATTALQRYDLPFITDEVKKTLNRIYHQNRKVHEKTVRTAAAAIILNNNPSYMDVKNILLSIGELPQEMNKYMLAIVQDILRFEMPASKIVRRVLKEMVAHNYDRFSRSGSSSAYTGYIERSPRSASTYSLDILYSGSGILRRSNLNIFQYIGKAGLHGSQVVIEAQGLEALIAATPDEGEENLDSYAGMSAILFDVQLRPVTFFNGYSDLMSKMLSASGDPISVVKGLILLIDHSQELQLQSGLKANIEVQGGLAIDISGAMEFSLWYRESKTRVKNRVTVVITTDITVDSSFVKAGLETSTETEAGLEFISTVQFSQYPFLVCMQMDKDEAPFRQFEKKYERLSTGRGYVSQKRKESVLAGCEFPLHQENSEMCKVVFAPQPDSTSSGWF
Sequence of MTP (P07237 18-508 partner, species assumed): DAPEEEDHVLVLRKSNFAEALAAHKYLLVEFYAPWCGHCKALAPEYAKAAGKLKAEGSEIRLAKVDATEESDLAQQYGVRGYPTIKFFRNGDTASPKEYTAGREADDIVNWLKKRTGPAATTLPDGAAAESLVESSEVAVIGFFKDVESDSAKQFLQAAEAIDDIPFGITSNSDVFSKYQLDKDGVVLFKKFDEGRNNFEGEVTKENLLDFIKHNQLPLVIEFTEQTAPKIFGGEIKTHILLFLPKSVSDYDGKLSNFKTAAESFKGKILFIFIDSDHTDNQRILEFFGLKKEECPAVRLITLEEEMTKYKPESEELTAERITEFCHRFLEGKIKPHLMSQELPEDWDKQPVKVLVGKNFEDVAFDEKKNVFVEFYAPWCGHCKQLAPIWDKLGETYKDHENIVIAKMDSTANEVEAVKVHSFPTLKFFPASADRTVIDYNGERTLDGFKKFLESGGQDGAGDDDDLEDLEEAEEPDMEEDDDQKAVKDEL

Row | Structure (SMILES) | IC50 (HepG2 cells) [nM] | IC50 (MTP) [nM] | melting point [°C]
1 | CCCOC(=O)CCCCCNC(=O)[C@@]1(c2ccccc2)CC[C@H](C(=O)N2CCC(NC(=O)c3ccccc3OC)CC2)c2ccccc21 [Co. No. 246] | 234 | 3.87 | –
2 | CCCOC(=O)CC[C@H](NC(=O)[C@@]1(c2ccccc2)CC[C@H](C(=O)N2CCC(NC(=O)c3ccccc3OC)CC2)c2ccccc21)C(=O)OCCC [Co. No. 247] | 382 | 5.96 | –
3 | COc1ccccc1C(=O)NC1CCN(C(=O)[C@H]2CC[C@@](C(=O)N[C@@H](CCC(=O)OC(C)C)C(=O)OC(C)C)(c3ccccc3)c3ccccc32)CC1 [Co. No. 248] | 184 | 6.61 | –
4 | COc1ccccc1C(=O)NC1CCN(C(=O)[C@H]2CC[C@@](C(=O)NCCCC(=O)OC(C)C)(c3ccccc3)c3ccccc32)CC1 [Co. No. 250] | 343 | 1.79 | –
5 | COC(=O)CCNC(=O)[C@@]1(c2ccccc2)CC[C@H](C(=O)N2CCC(NC(=O)c3cccnc3OC)CC2)c2ccccc21 [Co. No. 254] | 17.1 | 3 | –
6 | COC(=O)CCNC(=O)[C@@]1(c2ccccc2)CC[C@H](C(=O)N2CCC(NC(=O)c3cccnc3O)CC2)c2ccccc21 [Co. No. 255] | > 1000 | 585 | –
7 | COc1ncccc1C(=O)NC1CCN(C(=O)[C@H]2CC[C@@](C(=O)NCCC(=O)O)(c3ccccc3)c3ccccc32)CC1 [Co. No. 258] | > 1000 | 1800 | –
8 | COc1ncccc1C(=O)NC1CCN(C(=O)[C@@H]2CC[C@](C(=O)NCCC(=O)OC(C)C)(c3ccccc3)c3ccccc32)CC1 [Co. No. 261] | > 1000 | 757 | –
9 | COC(=O)CCNC(=O)[C@]1(c2ccccc2)CC[C@@H](C(=O)N2CCC(NC(=O)c3cccnc3OC)CC2)c2ccccc21 [Co. No. 262] | > 1000 | > 1000 | –
10 | CCOC(=O)[C@@]1(c2cccc(F)c2)CC[C@@H](C(=O)N2CCC(NC(=O)c3ccccc3OC)CC2)c2cc(F)ccc21 [Co. No. 273] | 1000 | 165 | –
11 | COc1ccccc1C(=O)NC1CCN(C(=O)[C@H]2CC[C@](C(=O)NCCC(=O)OC(C)C)(c3ccc(Br)cc3)c3cc(Br)ccc32)CC1 [Co. No. 275] | > 1000 | > 1000 | –
12 | CC(C)OC(=O)CCNC(=O)[C@@]1(c2ccccc2)CC[C@H](C(=O)N2CCC(NC(=O)c3cccnc3N3CCN(C)CC3)CC2)c2ccccc21 [Co. No. 277] | 108 | 11.4 | –
13 | COc1ncccc1C(=O)NC1CCN(C(=O)[C@H]2CC[C@@](C(=O)NCCC(=O)OC(C)C)(c3ccccc3)c3ccccc32)CC1 [Co. No. 280] | 3.82 | 0.82 | –

Further lines, results first:

Row | IC50 (HepG2 cells) [nM] | IC50 (MTP) [nM] | melting point [°C] | Structure (SMILES)
14 | 15 | 3.85 | 112 to 115 | CCOC(=O)[C@]1(c2ccccc2)CC[C@@H](C(=O)N2CCC(NC(=O)c3ccccc3)CC2)c2ccccc21 (racemic) [Co. No. 25]
15 | 28.8 | 6.05 | 103 to 107 | C=CCOC(=O)[C@]1(c2ccccc2)CC[C@@H](C(=O)N2CCC(NC(=O)c3ccccc3)CC2)c2ccccc21 [Co. No. 13]
16 | 586 | 2.64 | – | CCCOC(=O)CCCNC(=O)[C@@]1(c2ccccc2)CC[C@H](C(=O)N2CCC(NC(=O)c3ccccc3OC)CC2)c2ccccc21 [Co. No. 249]
17 | 3.52 | 2.49 | – | CCOC(=O)[C@]1(c2ccccc2)CC[C@@H](C(=O)N2CCC(NC(=O)c3ccccc3N3CCOCC3)CC2)c2ccccc21 [Co. No. 252]
18 | 3.24 | 0.984 | – | CCOC(=O)[C@@]1(c2ccccc2)CC[C@H](C(=O)N2CCC(NC(=O)c3cccnc3OC)CC2)c2ccccc21 [Co. No. 253]
19 | > 1000 | > 1000 | – | COC(=O)CCNC(=O)[C@]1(c2ccccc2)CC[C@@H](C(=O)N2CCC(NC(=O)c3ccccc3OC)CC2)c2ccccc21 [Co. No. 256]
20 | > 1000 | > 1000 | – | COc1ccccc1C(=O)NC1CCN(C(=O)[C@@H]2CC[C@](C(=O)NCCC(=O)OC(C)C)(c3ccccc3)c3ccccc32)CC1 [Co. No. 257]
21 | 6.34 | 3.64 | – | CCCOC(=O)[C@]1(c2ccccc2)CC[C@@H](C(=O)N2CCC(NC(=O)c3ccccc3N3CCOCC3)CC2)c2ccccc21 [Co. No. 260]
22 | 64.4 | 15.7 | – | COC(=O)CCNC(=O)[C@]1(c2ccccc2)CC[C@@H](C(=O)N2CCC(NC(=O)c3ccccc3N3CCOCC3)CC2)c2ccccc21 [Co. No. 263]
23 | 2.04 | 0.966 | – | C=CCOC(=O)[C@@]1(c2ccccc2)CC[C@H](C(=O)N2CCC(NC(=O)c3cccnc3OC)CC2)c2ccccc21 [Co. No. 266]
24 | 670 | 50.9 | – | COC(=O)CCNC(=O)[C@@]1(c2ccccc2)CC[C@H](C(=O)N2CCC(NC(=O)c3ccccc3N3CCN(C)CC3)CC2)c2ccccc21 [Co. No. 272]
25 | 17.3 | 4.69 | – | CCOC(=O)[C@@]1(c2ccccc2)CC[C@H](C(=O)N2CCC(NC(=O)c3cccnc3OC(C)C)CC2)c2ccccc21 [Co. No. 274]
26 | 75.2 | 3.49 | – | CC(C)OC(=O)CCNC(=O)[C@@]1(c2ccccc2)CC[C@H](C(=O)N2CCC(NC(=O)c3ccccc3N3CCN(C)CC3)CC2)c2ccccc21 [Co. No. 276]
27 | 14.1 | 1.5 | – | CCCOC(=O)CCNC(=O)[C@@]1(c2ccccc2)CC[C@H](C(=O)N2CCC(NC(=O)c3ccccc3OC)CC2)c2ccccc21 [Co. No. 279]
